Our source for the EC50 values is patent US20190284149A1, “ARYL HYDROCARBON RECEPTOR MODULATOR” (ARIAGEN, INC., priority 2014, published 2019).

In one experiment the target is T1, AhR receptor (Homo sapiens, UniProt P35869).
T1 construct: expression of native (Human Hepatoma Huh-7) AhR receptor reporter gene cells; endogenous in cells; host or cells: Human hepatoma Huh-7 reporter cells (firefly luciferase under receptor-specific response elements)
T1 sequence (P35869 11-848): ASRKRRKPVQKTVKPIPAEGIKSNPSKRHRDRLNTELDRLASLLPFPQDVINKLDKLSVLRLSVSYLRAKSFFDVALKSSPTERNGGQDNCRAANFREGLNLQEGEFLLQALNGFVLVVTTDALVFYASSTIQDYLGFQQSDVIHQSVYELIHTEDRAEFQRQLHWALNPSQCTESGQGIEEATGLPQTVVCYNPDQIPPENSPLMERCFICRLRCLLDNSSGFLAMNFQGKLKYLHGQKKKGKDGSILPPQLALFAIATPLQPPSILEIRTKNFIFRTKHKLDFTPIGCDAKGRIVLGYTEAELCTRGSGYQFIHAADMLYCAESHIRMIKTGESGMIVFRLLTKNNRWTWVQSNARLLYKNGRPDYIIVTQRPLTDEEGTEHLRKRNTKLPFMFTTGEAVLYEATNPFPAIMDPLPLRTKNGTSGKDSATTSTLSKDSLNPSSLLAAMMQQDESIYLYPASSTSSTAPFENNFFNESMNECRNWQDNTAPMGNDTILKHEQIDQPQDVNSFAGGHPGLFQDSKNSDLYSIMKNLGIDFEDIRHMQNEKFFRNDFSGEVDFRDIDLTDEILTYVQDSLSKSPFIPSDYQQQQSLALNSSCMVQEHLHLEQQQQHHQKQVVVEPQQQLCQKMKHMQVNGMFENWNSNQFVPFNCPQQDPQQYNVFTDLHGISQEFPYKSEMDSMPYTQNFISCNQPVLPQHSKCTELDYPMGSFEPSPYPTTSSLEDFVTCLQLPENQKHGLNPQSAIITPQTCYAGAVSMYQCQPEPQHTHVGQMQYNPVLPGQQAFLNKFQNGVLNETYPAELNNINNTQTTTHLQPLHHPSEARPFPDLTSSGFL
Briefly: AhR agonism assay (luciferase reporter gene cells). In kind it is cell-based.
Details: not given
As to the method:
Assay Materials (plasmids): expression of native (Human Hepatoma Huh-7) AhR receptor reporter gene cells, the reporter vector includes functional firefly luciferase gene linked to upstream receptor-specific genetic response elements (GRE).
The AhR agonism assay comprises the following three steps:
1. Cell implantation: a suspension of AhR receptor cells was prepared in cell recovery medium (CRM; FBS containing 10% activated carbon). Then, the prepared suspension (100 μl) was dispensed into wells of a white 96-well culture plate.
2. Right before the beginning of the experiment, Master Stocks were diluted to “2× concentration” treatment media with appropriate compound screening media (CSM: FBS containing 10% activated carbon). The test compounds were subjected to gradient dilution with CSM medium containing 0.2% DMSO, so that the final concentration of DMSO in each experimental well for each treatment group was 0.1%. […] The experimental plate was placed in an incubator at 37° C. for 24 h.
3. Fluorescence detection and analysis: after completion of the incubation, the treatment media were discarded and 100 μL/well of luciferase detection reagent was added. The Ave RLU (average relative fluorescence intensity) of each well and the coefficient of variation for each experimental group were determined. The activity of AhR receptor with various concentrations of the test compounds was quantitatively determined using a ratio of Ave RLU^Test Cmpd of various concentrations of the test compounds in the experimental group to Ave RLU^Vehicle of the blank control group, and fold activation and EC50 were determined.
For data processing method, refer to J. Biomol.
One may read the EC50 as the concentration that produces a half-maximal response. `COC(=O)c1csc(C(=O)c2c[nH]c3ccccc23)c1` [Compound 15] gave a 50% effective concentration (EC50) of 10000 to 100000 nM.

Compound `CC(C)c1nc(C(=O)c2c[nH]c3ccccc23)cs1` [Compound 9] displayed a 50% effective concentration (EC50) of 1 to 1000 nM.

With `COC(=O)c1csc(C(=O)c2cn(CO)c3ccccc23)n1` [Compound 37], the EC50 fell in the range of 1 to 1000 nM.

`COC(=O)c1ccc(C(=O)c2c[nH]c3ccccc23)nc1` [Compound 18]: the EC50 fell in the range of 1000 to 10000 nM.

In turn, `COC(=O)c1nsc(C(=O)c2c[nH]c3ccccc23)n1` [Compound 8] gave an EC50 of 1000 to 10000 nM.

The experiment is the same for the next values; noted with them: Human Hepatoma Huh-7 AhR reporter gene cells, 24 h incubation at 37° C., 0.1% DMSO; read-out: EC50.
Turning to `COC(=O)c1csc(C(=O)c2cn(COC(=O)[C@@H](N)C(C)(C)C)c3ccccc23)n1` [Compound 2-2], the EC50 fell in the range of 1 to 1000 nM.

For `O=C(c1nc(-c2ncco2)cs1)c1c[nH]c2ccccc12` [Compound 33-2], the EC50 lay in the range of 1 to 1000 nM.

As to `COC(=O)c1csc(/C(=N/O)c2c[nH]c3ccccc23)n1` [Compound 26-1], the EC50 is 1000 to 10000 nM.

As to `COC(=O)c1nnc(C(=O)c2c[nH]c3ccccc23)o1` [Compound 34], the half-maximal effective concentration (EC50) lay in the range of 1000 to 10000 nM.

As for `COC(=O)c1csc(C(=O)c2cn(C3OC(COC(C)=O)C(OC(C)=O)C(OC(C)=O)C3OC(C)=O)c3ccccc23)n1` (centres unmarked) [Compound 38-1], the EC50 was in the range of 1 to 1000 nM.

`CO/N=C(/c1nc(C(=O)OC)cs1)c1c[nH]c2ccccc12` [Compound 25-1]: the EC50 lay within 1000 to 10000 nM.

With `COC(=O)c1csc(C(=O)c2cn(C3OC(COC(C)=O)C(OC(C)=O)C(OC(C)=O)C3OC(C)=O)c3ccccc23)n1` (centres unmarked) [Compound 38-2], the EC50 fell in the range of 1 to 1000 nM.

Turning to `COC(=O)c1csc(C(=O)c2cn(C3OC(COC(C)=O)C(O)C(O)C3O)c3ccccc23)n1` (centres unmarked) [Compound 38-3], the EC50 lay in the range of 1 to 1000 nM.

In the case of `O=C(c1nc(-c2cnccn2)cs1)c1c[nH]c2ccccc12` [Compound 39], the EC50 lay in the range of 1 to 1000 nM.

As for `COC(=O)c1ccc(C(=O)c2c[nH]c3ccccc23)n1C` [Compound 12], the EC50 lay within 1 to 1000 nM.

`COCCOCCOCCOC(=O)n1cc(C(=O)c2nc(C(=O)OC)cs2)c2ccccc21` [Compound 5]: the EC50 lay within 1 to 1000 nM.

For the compound `O=C(c1nc(-c2c[nH]cn2)cs1)c1c[nH]c2ccccc12` [Compound 43-2], the EC50 was in the range of 1 to 1000 nM.

As to `O=C(c1nc(-c2ccco2)cs1)c1c[nH]c2ccccc12` [Compound 40], the EC50 lay within 1 to 1000 nM.

In the case of `CC(C)[C@H](N)C(=O)n1cc(C(=O)c2nc(-c3nccs3)cs2)c2ccccc21` [Compound 42-2], the EC50 fell in the range of 1 to 1000 nM.

Take `COC(=O)COCn1cc(C(=O)c2nc(C(=O)OC)cs2)c2ccccc21` [Compound 3]: the EC50 was in the range of 1 to 1000 nM.

With `COC(=O)c1csc(C(=O)c2cn(C(=O)[C@@H](N)C(C)C)c3ccccc23)n1` [Compound 4-2], the half-maximal effective concentration (EC50) was in the range of 1 to 1000 nM.

For `O=C(c1nc(-c2ccccn2)cs1)c1c[nH]c2ccccc12` [Compound 22], the EC50 was 1 to 1000 nM.

For the compound `COC(=O)c1csc(C(=O)c2c[nH]c3ccc(OC)cc23)n1` [Compound 19-2], the EC50 was in the range of 1 to 1000 nM.

Consider `COC(=O)c1csc(/C(=N\O)c2c[nH]c3ccccc23)n1` [Compound 26-2], for which the EC50 lay in the range of 1000 to 10000 nM.

Regarding `COC(=O)C1CSC(C(=O)c2c[nH]c3ccc(OC)cc23)=N1` (centres unmarked) [Compound 19-1], the half-maximal effective concentration (EC50) was in the range of 1 to 1000 nM.

As for `COC(=O)C1CSC(c2csc(C(=O)c3c[nH]c4ccccc34)n2)=N1` (centres unmarked) [Compound 32-1], the EC50 lay within 1 to 1000 nM.

In the case of `O=C(c1nc(-c2nccs2)cs1)c1c[nH]c2ccccc12` [Compound 31-2], the EC50 was 1 to 1000 nM.

As to `COC(=O)c1c[nH]c(C(=O)c2c[nH]c3ccccc23)n1` [Compound 23], the half-maximal effective concentration (EC50) fell in the range of 1 to 1000 nM.

For `O=C(c1nc(C2=NCCO2)cs1)c1c[nH]c2ccccc12` [Compound 33-1], the EC50 fell in the range of 1 to 1000 nM.

In the case of `COC(=O)c1csc(C(=O)c2cn(C3OC(CO)C(O)C(O)C3O)c3ccccc23)n1` (centres unmarked) [Compound 38-4], the EC50 lay within 1 to 1000 nM.

With `COC(=O)CNC(=O)c1csc(C(=O)c2c[nH]c3ccccc23)n1` [Compound 27], the EC50 was 1 to 1000 nM.

Take `COC(=O)c1csc(C(=O)c2cn(COC(=O)[C@@H](N)C(C)C)c3ccccc23)n1` [Compound 1-2]: the EC50 was 1 to 1000 nM.

As for `O=C(c1nc(C2CC2)cs1)c1c[nH]c2ccccc12` [Compound 41], the EC50 is 1 to 1000 nM.

As to `COC(=O)c1coc(-c2csc(C(=O)c3c[nH]c4ccccc34)n2)n1` [Compound 30-2], the EC50 lay in the range of 1 to 1000 nM.

With `COC(=O)c1csc(Cc2c[nH]c3ccccc23)n1` [Compound 28], the EC50 lay in the range of 10000 to 100000 nM.

For the compound `O=C(c1nc(-c2nnc[nH]2)cs1)c1c[nH]c2ccccc12` [Compound 36], the EC50 was in the range of 1 to 1000 nM.

Turning to `N#Cc1csc(C(=O)c2c[nH]c3ccccc23)n1` [Compound 29], the EC50 fell in the range of 1 to 1000 nM.

For `O=C(c1nc(-c2nnn[nH]2)cs1)c1c[nH]c2ccccc12` [Compound 35], the EC50 is 1000 to 10000 nM.

Turning to `COC(=O)c1csc(-c2csc(C(=O)c3c[nH]c4ccccc34)n2)n1` [Compound 32-2], the EC50 was in the range of 1 to 1000 nM.

Regarding `CC(C)[C@H](NC(=O)OC(C)(C)C)C(=O)n1cc(C(=O)c2nc(-c3nccs3)cs2)c2ccccc21` [Compound 42-1], the concentration giving a half-maximal response (EC50) lay within 1 to 1000 nM.

For the compound `CC(C)c1cnc(C(=O)c2c[nH]c3ccccc23)s1` [Compound 10], the EC50 was in the range of 10000 to 100000 nM.

Consider `COCCOCCOCCOCC(=O)OCn1cc(C(=O)c2nc(C(=O)OC)cs2)c2ccccc21` [Compound 6], for which the half-maximal effective concentration (EC50) was in the range of 1 to 1000 nM.

As to `Nc1nc(-c2csc(C(=O)c3c[nH]c4ccccc34)n2)cs1` [Compound 44], the EC50 fell in the range of 1 to 1000 nM.

In the case of `COC(=O)[C@@H]1COC(c2csc(C(=O)c3c[nH]c4ccccc34)n2)=N1` [Compound 30-1], the EC50 lay in the range of 1 to 1000 nM.

With `O=C(c1nc(C2=NCCS2)cs1)c1c[nH]c2ccccc12` [Compound 31-1], the EC50 lay within 1 to 1000 nM.

As for `COCCOCCOCCOCC(=O)OCC(=O)OCn1cc(C(=O)c2nc(C(=O)OC)cs2)c2ccccc21` [Compound 7], the EC50 lay in the range of 1 to 1000 nM.

For `CO/N=C(\c1nc(C(=O)OC)cs1)c1c[nH]c2ccccc12` [Compound 25-2], the EC50 lay within 1000 to 10000 nM.
